Values quoted from earlier work as cited in patent US12029811B2, “Formulation and method for the treatment of androgenic alopecia” (CENTRO INTERNACIONAL DE COSMIATRÍA, S.A.P.I. DE C.V., priority 2018, dated 2024).

How the values were obtained:
[1] = system: patients; conditions: oral, 5 mg tablets; impotence, erection failure, decreased libido, gynecomastia
[2] = system: alopecia; conditions: topical 5% solution (male) or 2% (female alopecia)

Row | Structure (SMILES) | Side effects (in words) [1] | Individuals responding to the treatment [2]
1 | CC(C)(C)NC(=O)[C@H]1CC[C@H]2[C@@H]3CC[C@H]4NC(=O)C=C[C@]4(C)[C@H]3CC[C@]12C [Finasteride, N-(1,1-dimethylethyl)-3-oxo-4-aza 5a-androst-1-en-17β-carboxamide] | side effects were significant | 
2 | Nc1cc(N2CCCCC2)nc(N)[n+]1[O-] [Minoxidil, 2,6-diamino-4-(piperidin-1-yl) pyrimidine 1-oxide] |  | ≤ 40%
